Experimental data as given in patent publication EP0400319A1, “4-(4'-Halophenyl)-2-methyl-1,2,3,4-tetrahydroisoquinolines and process for their preparation” (N I S PRI VCHTI, priority 1989, dated 1990).
“And” between values parts separate entries of the source, which are not always exact repeats. Equal values may be shown once. Where a name gives a salt, the structure may show the parent alone.

System: durch Wasser-Immersionsstreß verursachte Magengeschwüre
Test: Water-immersion stress induced gastric ulcers in rats
Assay type: in vivo, Ratten
Settings: for Geschwürindex: 5 h water immersion; for Antiulkuswirkung im Vergleich zum Präparat Ranitidin: ratio of doses giving about 52% inhibition
Description: Untersucht wurde auch die Antiulkusaktivität der razemischen 1a- und 1b-Verbindungen auf ein experimentelles Modell von Wasser-Immersionsstreß verursachten Magengeschwüren bei Ratten (Tabelle 2). Das Vergleichspräparat war der H₂-Antagonist Ranitidin.
Bestimmung der inhibierenden Wirkung von 1a und 1b auf durch Wasser-Immersionsstreß verursachte Magengeschwüre bei Ratten
Die Versuche wurden mit 280 weißen männlichen Ratten der Rasse Wistar mit einem Gewicht von 150 bis 200 g nach der in K. Takadi, Y. Ischii, Arzneim. Forsch. Drug Res., 1967, 17, 1544, beschriebenen Methode durchgeführt. 18 h vor dem Versuch hungern die Tiere unter freiem Wasserzutritt. Die Versuchsverbindung wird oral verabreicht, worauf die Tiere unbeweglich und voneinander isoliert auf dem Rücken auf eine Unterlage gebunden werden. Man legt die Tiere bei 17-18°C ins Wasser und tötet sie nach 5 h. Die Mägen werden entnommen und die destruktiven Veränderungen makroskopisch bestimmt.

| Compound | ED50 (Rattus norvegicus, 5 h, oral, Inhibierungsgrad 52% at this dose, read-out: durchschnittliche effektive Dosis) | Dosis, bei der der Inhibierungsgrad ein Maximum erreicht (oral) | Unterdrückung des Geschwürindex (oral, 0,050 mg/kg) | Geschwürindex (oral, 0,050 mg/kg) | Unterdrückung des Geschwürindex (oral, 0,100 mg/kg) | Geschwürindex (oral, 0,100 mg/kg) | Unterdrückung des Geschwürindex (oral, 0,500 mg/kg) | Geschwürindex (oral, 0,500 mg/kg) | Unterdrückung des Geschwürindex (oral, 1,000 mg/kg) | Geschwürindex (oral, 1,000 mg/kg) | Unterdrückung des Geschwürindex (oral, 3,000 mg/kg) | Geschwürindex (oral, 3,000 mg/kg) | Antiulkuswirkung im Vergleich zum Präparat Ranitidin (oral) | Unterdrückung des Geschwürindex (oral, 10 mg/kg) | Geschwürindex (oral, 10 mg/kg) | Unterdrückung des Geschwürindex (oral, 30 mg/kg) | Geschwürindex (oral, 30 mg/kg) |
| --- | --- | --- | --- | --- | --- | --- | --- | --- | --- | --- | --- | --- | --- | --- | --- | --- | --- |
| CN1Cc2ccccc2C(c2ccc(Br)cc2)C1 (racemic) [1a, 4-(4′-Bromphenyl)-2-methyl-1,2,3,4-tetrahydroisochinolin Hydrochlorid] | 0.5 mg/kg | 3 mg/kg | 20,6% | 69 ±18,2 | 48,9% and 48,3% | 44,4 ± 9,66 | 52,1% | 30,8 ±17,7 | 58,9% | 35,7 ±14,2 | 70,3% | 19,5 ±12,3 | 20 Mal |  |  |  |  |
| CN1Cc2ccccc2C(c2ccc(F)cc2)C1 (racemic) [1b, 4-(4′-fluorphenyl)-2-methyl-1,2,3,4-tetrahydroisochinolin Hydrochlorid] |  |  |  |  |  |  |  |  | 41,53% | 38,5 ± 7,75 | 57,98% | 27,66±12,73 | Ähnliche Ergebnisse |  |  |  |  |
| CNC(=C[N+](=O)[O-])NCCSCc1ccc(CN(C)C)o1 [Ranitidin, reference compound] |  |  |  |  |  |  | 27% | 32,3 | 39,27% | 26,9 | 35,89% | 28,4 |  | 46,98% | 22,8 | 61,62% | 17,0 |
